Reference: patent US20230167127A1, “COMPOUNDS AND THEIR USE IN THE TREATMENT OF BACTERIAL INFECTION” (Hoffmann-La Roche Inc., priority 2020, published 2023)
Structures can show the parent of a compound that is named as a salt.

System: Escherichia coli ATCC 25922
Test: 50% growth inhibitory concentration (IC50) determination, Iso-Sensitest broth dilution
Format: cell-based
Conditions: Escherichia coli, ATCC25922, 16 h, strain Escherichia coli ATCC 25922; 10-point broth dilution, optical density at 600 nm over 16 h; read-out: Escherichia coli growth inhibition IC50
Summary of the method: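 Growth was tracked as optical density at 600 nm every 20 minutes for 16 h at 35±2° C. Compounds from DMSO stocks were serially diluted twofold over 10 points (e.g. 50–0.097 μM final) in Iso-Sensitest broth. Inhibition computed in log-phase growth to give IC50.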

| SMILES | IC50 [µM] |
| --- | --- |
| CC(N)COc1cc2c(c(Cl)n1)CC(CNCCC1CN(c3cnc4c(n3)NC(=O)CO4)C(=O)O1)C2 (stereo not shown) [Example 145, 6-[5-[2-[[3-(2-aminopropoxy)-1-chloro-6,7-dihydro-5H-cyclopenta[c]pyridin-6-yl]methylamino]ethyl]-2-oxo-oxazolidin-3-yl]-4H-pyrazino[2,3-b][1,4]oxazin-3-one; formic acid] | 0.191 |
| NC(CNCC1CN(c2ccc3c(n2)NC(=O)CO3)C(=O)O1)C1Cc2cccc(Cl)c2C1 (stereo not shown) [Example 158, 6-[5-[[[2-amino-2-(4-chloro-2,3-dihydro-1H-inden-2-yl)ethyl]amino]methyl]-2-oxo-1,3-oxazolidin-3-yl]-4H-pyrido[3,2-b][1,4]oxazin-3-one; formic acid] | 0.164 |
| NC(CN1CC2(C1)CN(c1ccc3c(n1)NC(=O)CO3)C(=O)O2)C1Cc2cccc(Cl)c2C1 (stereo not shown) [Example 159, 6-[2-[2-amino-2-(4-chloro-2,3-dihydro-1H-inden-2-yl)ethyl]-6-oxo-5-oxa-2,7-diazaspiro[3.4]octan-7-yl]-4H-pyrido[3,2-b][1,4]oxazin-3-one; formic acid] | 0.17 |
| NC1(COc2cc(F)c3c(c2)CC(CNCCC2CN(c4cnc5c(n4)NC(=O)CO5)C(=O)O2)C3)CC1 (stereo not shown) [Example 161, 6-[5-[2-[[6-[(1-aminocyclopropyl)methoxy]-4-fluoro-2,3-dihydro-1H-inden-2-yl]methylamino]ethyl]-2-oxo-1,3-oxazolidin-3-yl]-4H-pyrazino[2,3-b][1,4]oxazin-3-one] | < 0.0977 |
| Cc1nc(OCCN)c(C)c2c1CC(CNCCC1CN(c3ccc4c(n3)NC(=O)CO4)C(=O)O1)C2 (stereo not shown) [Example 171, 6-[5-[2-[[3-(2-aminoethoxy)-1,4-dimethyl-6,7-dihydro-5H-cyclopenta[c]pyridin-6-yl]methylamino]ethyl]-2-oxo-1,3-oxazolidin-3-yl]-4H-pyrido[3,2-b][1,4]oxazin-3-one] | 0.178 |
| Cc1nc(OCC2(N)CC2)c(C)c2c1CC(CNCCC1CN(c3ccc4c(n3)NC(=O)CO4)C(=O)O1)C2 (stereo not shown) [Example 172, 6-[5-[2-[[3-[(1-aminocyclopropyl)methoxy]-1,4-dimethyl-6,7-dihydro-5H-cyclopenta[c]pyridin-6-yl]methylamino]ethyl]-2-oxo-1,3-oxazolidin-3-yl]-4H-pyrido[3,2-b][1,4]oxazin-3-one] | < 0.0977 |
| CNCCOc1nc(C)c2c(c1C)CC(CNCCC1CN(c3ccc4c(n3)NC(=O)CO4)C(=O)O1)C2 (stereo not shown) [Example 173, 6-[5-[2-[[1,4-dimethyl-3-[2-(methylamino)ethoxy]-6,7-dihydro-5H-cyclopenta[c]pyridin-6-yl]methylamino]ethyl]-2-oxo-1,3-oxazolidin-3-yl]-4H-pyrido[3,2-b][1,4]oxazin-3-one] | 0.194 |
| Cc1nc(OCCCN)c(C)c2c1CC(CNCCC1CN(c3ccc4c(n3)NC(=O)CO4)C(=O)O1)C2 (stereo not shown) [Example 176, 6-[5-[2-[[3-(3-aminopropoxy)-1,4-dimethyl-6,7-dihydro-5H-cyclopenta[c]pyridin-6-yl]methylamino]ethyl]-2-oxo-1,3-oxazolidin-3-yl]-4H-pyrido[3,2-b][1,4]oxazin-3-one] | 0.483 |
| NCCOc1cc(Cl)c2c(c1)CC(NCCCC1CN(c3ccc4c(n3)NC(=O)CO4)C(=O)O1)C2 (stereo not shown) [Example 179, 6-[5-[3-[[6-(2-aminoethoxy)-4-chloro-2,3-dihydro-1H-inden-2-yl]amino]propyl]-2-oxo-1,3-oxazolidin-3-yl]-4H-pyrido[3,2-b][1,4]oxazin-3-one] | 0.103 |
| NC1(COc2cc(Cl)c3c(c2)CC(NCCCC2CN(c4ccc5c(n4)NC(=O)CO5)C(=O)O2)C3)CC1 (stereo not shown) [Example 180, 6-[5-[3-[[6-[(1-aminocyclopropyl)methoxy]-4-chloro-2,3-dihydro-1H-inden-2-yl]amino]propyl]-2-oxo-1,3-oxazolidin-3-yl]-4H-pyrido[3,2-b][1,4]oxazin-3-one] | < 0.0977 |
| N#Cc1cccc2c1CC(CN[C@H]1C[C@]3(CN(c4ccc5c(n4)NC(=O)CO5)C(=O)O3)C1)C2 (stereo partly drawn) [Example 183, 2-[[[2,4-cis-6-oxo-7-(3-oxo-4H-pyrido[3,2-b][1,4]oxazin-6-yl)-5-oxa-7-azaspiro[3.4]octan-2-yl]amino]methyl]-2,3-dihydro-1H-indene-4-carbonitrile] | 0.153 |

Continued, values first:

| IC50 [µM] | SMILES |
| --- | --- |
| 0.833 | N#Cc1c(OCCN2CCNCC2)ccc2c1CC(CNCCC1CN(c3ccc4c(n3)NC(=O)CO4)C(=O)O1)C2 (stereo not shown) [Example 143, 2-[[2-[2-oxo-3-(3-oxo-4H-pyrido[3,2-b][1,4]oxazin-6-yl)-1,3-oxazolidin-5-yl]ethylamino]methyl]-5-(2-piperazin-1-ylethoxy)-2,3-dihydro-1H-indene-4-carbonitrile; formic acid] |
| 0.131 | CC(N)COc1cc2c(c(Cl)n1)CC(CNCCC1CN(c3ccc4c(n3)NC(=O)CO4)C(=O)O1)C2 (stereo not shown) [Example 144, 6-[5-[2-[[3-(2-aminopropoxy)-1-chloro-6,7-dihydro-5H-cyclopenta[c]pyridin-6-yl]methylamino]ethyl]-2-oxo-1,3-oxazolidin-3-yl]-4H-pyrido[3,2-b][1,4]oxazin-3-one; formic acid] |
| < 0.0977 | O=C1COc2ccc(N3CC(CCNCC4Cc5cc(OC6CNC6)cc(F)c5C4)OC3=O)nc2N1 (stereo not shown) [Example 150, 6-[5-[2-[[6-(azetidin-3-yloxy)-4-fluoro-2,3-dihydro-1H-inden-2-yl]methylamino]ethyl]-2-oxo-1,3-oxazolidin-3-yl]-4H-pyrido[3,2-b][1,4]oxazin-3-one] |
| < 0.0977 | CC(N)COc1cc(F)c2c(c1)CC(CNCCC1CN(c3ccc4c(n3)NC(=O)CO4)C(=O)O1)C2 (stereo not shown) [Example 154, 6-[5-[2-[[6-(2-aminopropoxy)-4-fluoro-2,3-dihydro-1H-inden-2-yl]methylamino]ethyl]-2-oxo-1,3-oxazolidin-3-yl]-4H-pyrido[3,2-b][1,4]oxazin-3-one] |
| 0.364 | CC(CN)Oc1cc(F)c2c(c1)CC(CNCCC1CN(c3ccc4c(n3)NC(=O)CO4)C(=O)O1)C2 (stereo not shown) [Example 155, 6-[5-[2-[[6-(1-aminopropan-2-yloxy)-4-fluoro-2,3-dihydro-1H-inden-2-yl]methylamino]ethyl]-2-oxo-1,3-oxazolidin-3-yl]-4H-pyrido[3,2-b][1,4]oxazin-3-one; formic acid] |
| < 0.0977 | NC1(COc2cc(F)c3c(c2)CC(CNCCC2CN(c4ccc5c(n4)NC(=O)CO5)C(=O)O2)C3)CC1 (stereo not shown) [Example 160, 6-[5-[2-[[6-[(1-aminocyclopropyl)methoxy]-4-fluoro-2,3-dihydro-1H-inden-2-yl]methylamino]ethyl]-2-oxo-1,3-oxazolidin-3-yl]-4H-pyrido[3,2-b][1,4]oxazin-3-one] |
| 0.195 | NC1(COc2cc(F)c3c(c2)CC(CNCCC2CN(c4ccc5c(n4)NC(=O)CO5)C(=O)O2)C3)COC1 (stereo not shown) [Example 162, 6-[5-[2-[[6-[(3-aminooxetan-3-yl)methoxy]-4-fluoro-2,3-dihydro-1H-inden-2-yl]methylamino]ethyl]-2-oxo-1,3-oxazolidin-3-yl]-4H-pyrido[3,2-b][1,4]oxazin-3-one; formic acid] |
| < 0.0977 | NCCOc1ncc2c(c1Cl)CC(CNCCC1CN(c3ccc4c(n3)NC(=O)CO4)C(=O)O1)C2 (stereo not shown) [Example 174, 6-[5-[2-[[3-(2-aminoethoxy)-4-chloro-6,7-dihydro-5H-cyclopenta[c]pyridin-6-yl]methylamino]ethyl]-2-oxo-1,3-oxazolidin-3-yl]-4H-pyrido[3,2-b][1,4]oxazin-3-one] |
| 0.193 | Cc1nc(OCC2(N)CC2)cc2c1CC(CNCCC1CN(c3ccc4c(n3)NC(=O)CO4)C(=O)O1)C2 (stereo not shown) [Example 175, 6-[5-[2-[[3-[(1-aminocyclopropyl)methoxy]-1-methyl-6,7-dihydro-5H-cyclopenta[c]pyridin-6-yl]methylamino]ethyl]-2-oxo-1,3-oxazolidin-3-yl]-4H-pyrido[3,2-b][1,4]oxazin-3-one] |
| < 0.0977 | NCCOc1cc(Cl)c2c(c1)CC(CNCCC1CN(c3ccc4c(n3)NC(=O)CO4)C(=O)O1)C2 (stereo not shown) [Example 177, 6-[5-[2-[[6-(2-aminoethoxy)-4-chloro-2,3-dihydro-1H-inden-2-yl]methylamino]ethyl]-2-oxo-1,3-oxazolidin-3-yl]-4H-pyrido[3,2-b][1,4]oxazin-3-one] |
| < 0.0977 | NC1(COc2cc(Cl)c3c(c2)CC(CNCCC2CN(c4ccc5c(n4)NC(=O)CO5)C(=O)O2)C3)CC1 (stereo not shown) [Example 178, 6-[5-[2-[[6-[(1-aminocyclopropyl)methoxy]-4-chloro-2,3-dihydro-1H-inden-2-yl]methylamino]ethyl]-2-oxo-1,3-oxazolidin-3-yl]-4H-pyrido[3,2-b][1,4]oxazin-3-one] |
| < 0.0977 | NC1(COc2ncc3c(c2Cl)CC(CNCCC2CN(c4ccc5c(n4)NC(=O)CO5)C(=O)O2)C3)CC1 (stereo not shown) [Example 181, 6-[5-[2-[[3-[(1-aminocyclopropyl)methoxy]-4-chloro-6,7-dihydro-5H-cyclopenta[c]pyridin-6-yl]methylamino]ethyl]-2-oxo-1,3-oxazolidin-3-yl]-4H-pyrido[3,2-b][1,4]oxazin-3-one] |
| 0.425 | Cc1nc(OCC2CNC2)c(C)c2c1CC(CNCCC1CN(c3ccc4c(n3)NC(=O)CO4)C(=O)O1)C2 (stereo not shown) [Example 184, 6-[5-[2-[[3-(azetidin-3-ylmethoxy)-1,4-dimethyl-6,7-dihydro-5H-cyclopenta[c]pyridin-6-yl]methylamino]ethyl]-2-oxo-1,3-oxazolidin-3-yl]-4H-pyrido[3,2-b][1,4]oxazin-3-one hydrochloride] |
| < 0.0977 | N#Cc1cc(OCC2(N)CC2)cc2c1CC(CNCCC1CN(c3ccc4c(n3)NC(=O)CO4)C(=O)O1)C2 (stereo not shown) [Example 185, 6-[(1-aminocyclopropyl)methoxy]-2-[[2-[2-oxo-3-(3-oxo-4H-pyrido[3,2-b][1,4]oxazin-6-yl)-1,3-oxazolidin-5-yl]ethylamino]methyl]-2,3-dihydro-1H-indene-4-carbonitrile] |
